Laboratory results published in the supplement of paper PMC10307832.

Key:
Assay in all cases: relative viability (nuclei count vs DMSO), 5 days (fraction); higher = more cells survive
[1] = compound: C/C(=N\NC(=S)N1CCC1)/C2=CC=CC=N2 + Nc1nc2[nH]cc(CCc3ccc(C(=O)N[C@@H](CCC(=O)O)C(=O)O)cc3)c2c(=O)[nH]1 [Pemetrexed] (partner 0.2 µM)
In short: (§1)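 Relative viability is defined as nuclei in treated wells over nuclei in vehicle wells. Duplicate plates were run and medians reported. Lung cancer cell lines in 1536-well plates were dosed by pin tool one day after seeding, with one drug or with a fixed anchor-drug dose plus five library-drug doses (not always all listed) in √10 steps, and nuclei were counted after 5 days.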

[2] = compound: C/C(=N\NC(=S)N1CCC1)/C2=CC=CC=N2 + CC1(C)CCC(c2ccc(Cl)cc2)=C(CN2CCN(c3ccc(C(=O)NS(=O)(=O)c4ccc(N[C@H](CCN5CCOCC5)CSc5ccccc5)c(S(=O)(=O)C(F)(F)F)c4)cc3)CC2)C1 [Navitoclax] (partner 0.5 µM)
In short: as §1

[3] = compound: C/C(=N\NC(=S)N1CCC1)/C2=CC=CC=N2 + O=C(CCCCCCC(=O)Nc1ccccc1)NO [Vorinostat] (partner 1 µM)
In short: as §1

[4] = compound: C/C(=N\NC(=S)N1CCC1)/C2=CC=CC=N2 + C[C@]1(O)C[C@@H](c2nc(-c3ccc4ccc(-c5ccccc5)nc4c3)c3c(N)nccn32)C1 [Linsitinib] (partner 1 µM)
In short: as §1

Cell Line | relative viability ([1]; first compound 0.05 µM) | relative viability ([1]; first compound 0.1581 µM) | relative viability ([1]; first compound 0.5 µM) | relative viability ([1]; first compound 1.581 µM) | relative viability ([1]; first compound 5 µM) | relative viability ([2]; first compound 0.05 µM) | relative viability ([2]; first compound 0.1581 µM) | relative viability ([2]; first compound 0.5 µM) | relative viability ([2]; first compound 1.581 µM) | relative viability ([2]; first compound 5 µM) | relative viability ([3]; first compound 0.05 µM) | relative viability ([3]; first compound 0.1581 µM) | relative viability ([3]; first compound 0.5 µM) | relative viability ([3]; first compound 1.581 µM) | relative viability ([3]; first compound 5 µM) | relative viability ([4]; first compound 0.05 µM) | relative viability ([4]; first compound 0.1581 µM) | relative viability ([4]; first compound 0.5 µM) | relative viability ([4]; first compound 1.581 µM) | relative viability ([4]; first compound 5 µM)
PC-14 | 0.0492 | 0.0611 | 0.0691 | 0.0506 | 0.0521 | 0.0569 | 0.0561 | 0.0604 | 0.061 | 0.0618 | 0.0311 | 0.0568 | 0.041 | 0.041 | 0.0331 | 0.0952 | 0.125 | 0.12 | 0.0874 | 0.117
RERF-LC-KJ | 0.211 | 0.231 | 0.235 | 0.191 | 0.222 | 0.184 | 0.266 | 0.245 | 0.159 | 0.227 | 0.214 | 0.207 | 0.19 | 0.21 | 0.208 | 0.233 | 0.253 | 0.227 | 0.243 | 0.229
SK-LU-1 | 0.293 | 0.28 | 0.282 | 0.187 | 0.246 | 0.183 | 0.167 | 0.148 | 0.124 | 0.112 | 0.21 | 0.244 | 0.242 | 0.219 | 0.272 | 0.274 | 0.231 | 0.224 | 0.202 | 0.21
SK-MES-1 | 0.248 | 0.258 | 0.23 | 0.177 | 0.207 | 0.186 | 0.21 | 0.18 | 0.13 | 0.185 | 0.198 | 0.208 | 0.182 | 0.177 | 0.183 | 0.269 | 0.236 | 0.225 | 0.205 | 0.183
SW 1573 | 0.0863 | 0.149 | 0.169 | 0.0609 | 0.0817 | 0.138 | 0.0732 | 0.0916 | 0.0833 | 0.0479 | 0.0949 | 0.115 | 0.145 | 0.0758 | 0.0799 | 0.0916 | 0.123 | 0.113 | 0.152 | 0.0935
UMC-11 | 0.221 | 0.169 | 0.159 | 0.141 | 0.138 | 0.16 | 0.138 | 0.119 | 0.116 | 0.106 | 0.168 | 0.14 | 0.146 | 0.134 | 0.139 | 0.369 | 0.238 | 0.205 | 0.169 | 0.161
